Results: paper PMC9247344 (ACS infectious diseases, 2021)

Key:
[1] = system: P. falciparum asexual blood stages (PfABS), strain W2; assay type: cell-based, Plasmodium falciparum; details: for Selectivity Index: PfABS versus HepG2 cytotoxicity; for EC50: Plasmodium falciparum, W2, read-out: PfABS pEC50 (±S.D.) (converted)
[2] = Cytotoxicity against HepG2; assay type: cell-based, human; details: human, HepG2 cells
[3] = system: HepG2 human hepatocellular carcinoma cell line; assay: Cytotoxicity against HepG2; assay type: cell-based; details: HepG2, 72 h; mean (±S.D.), n≥3; <5.00 = inactive at all concentrations tested

Row | EC50 [1] [nM] | Compound | Selectivity Index [1] | CC50 at 72 h [2] [nM] | Cytotoxicity pCC50 (±S.D.) [3]
1 | 0.871 | C[C@H]1[C@@H](O)O[C@@H]2O[C@@]3(C)CC[C@H]4[C@H](C)CC[C@@H]1[C@@]24OO3 [DHA, dihydroartemisinin] | > 9770 | > 8510 | 
2 | 46.8 | COc1ccc(C[C@H](N)C(=O)N[C@H]2[C@@H](O)[C@H](n3cnc4c(N(C)C)ncnc43)O[C@@H]2CO)cc1 [puromycin] | 8.71 | 407 | 
3 | 3.39 | C[C@@H]1CC[C@H]2[C@@H](C)C(=O)O[C@@H]3O[C@@]4(C)CC[C@@H]1[C@]32OO4 [artemisinin] | > 2950 | > 10000 | 
4 |  | CC1CCC2C(C)C(CCCO)OC3OC4(C)CCC1C32OO4 (centres unmarked) [Compound 6a] | > 891 |  | < 5.00 (0.00)
5 | 1.12 | C[C@H]1[C@H](OC(=O)CCC(=O)O)O[C@@H]2O[C@@]3(C)CC[C@H]4[C@H](C)CC[C@@H]1[C@@]24OO3 [artesunate] | 3160 | 3550 | 
